What was measured:
[1] = biological target: T1, hSERT (Homo sapiens, UniProt P31645); assay: SERT radioligand binding assay ([125I]RTI-55, HEK-hSERT membranes); settings: [125I]RTI-55, 1 hour at room temperature
T1 construct: expressed in transfected cells; host or cells: HEK-293 cells (crude membranes)
Method: (§1) NK-1 Binding assay. Crude membrane suspensions were prepared for the NK1 and SERT radioligand binding assays from U373 cells or recombinant HEK-293 cells expressing hSERT, respectively. Cells were harvested from T-175 flasks as follows. The medium is removed from the flasks and the cells rinsed with HBSS without Ca and without Mg. The cells are then incubated for 5-10 minutes in 10 mM Tris-Cl, pH 7.5, 5 mM EDTA before the cells are lifted with a combination of pipetting and scraping, as needed. To prepare membranes, the cell suspension is collected into centrifuge bottles and homogenized for 30 seconds with a Polytron homogenizer. The suspension is centrifuged for 30 min @ 32,000×g, 4° C., then the supernatant is decanted and the pellet resuspended and homogenized in 50 mM Tris-Cl, pH 7.5, 1 mM EDTA for 10 seconds. The suspension is then centrifuged again for 30 min @ 32,000×g, 4° C. The supernatant is decanted and the pellet resuspended in 50 mM Tris-Cl, pH 7.5, 1 mM EDTA and briefly homogenized. A Bradford assay (Bio-rad) is performed and the membrane preparation diluted to 2 mg/ml with 50 mM Tris-Cl, pH 7.5, 1 mM EDTA. Aliquots are prepared, and then frozen and stored at −80° C.
SERT radioligand binding assay. Compounds are dissolved in 100% DMSO at a concentration 100× the desired highest assay concentration, serially diluted 1:3 in 100% DMSO, and 0.4 ul/well of each solution is dispensed to a Nunc polypropylene, round bottom, 384 well plate. 100% inhibition is defined with 0.4 ul/well of 1 mM fluoxetine (Sigma F-132) dissolved in DMSO. 20 ul/well of a 2×HEK-hSERT membrane preparation (15 ug/ml in 50 mM Tris-Cl, pH 7.5, 120 mM NaCl, 5 mM KCl) and 20 ul/well of a 2×radioligand solution (520 pM [^125I]RTI-55 (Perkin-Elmer NEX-272) in 50 mM Tris-Cl, pH 7.5, 120 mM NaCl, 5 mM KCl) are added to each well and the reaction incubated for 1 hour at room temperature. The contents of the assay plate are then transferred to a Millipore MultiscreenHTS GF/B filter plate which has been pretreated with 0.5% PEI for at least one hour. The plate is vacuum filtered and washed with 7 washes of 100 ul/well of 50 mM Tris-Cl, pH 7.5, 120 mM NaCl, 5 mM KCl chilled to 4° C. The filtration and washing is completed in less than 90 s. The plates are air-dried overnight, 12 ul/well of MicroScint scintillation fluid added, and the plates counted in a Trilux.
(§2) Data analysis. The raw data are normalized to percent inhibition using control wells defining 0% (DMSO only) and 100% (selective inhibitor) inhibition which are run on each plate. Each plate is run in triplicate, and the concentration response curve thus generated is fit using the four-parameter dose response equation, Y=Bottom+(Top-Bottom)/(1+10^((LogIC50-X)*HillSlope)) in order to determine the IC50 value for each compound. The radioligand concentration chosen for each assay corresponds to the Kd concentration determined through saturation binding analysis for each assay.

[2] = biological target: T2, NK-1 (Homo sapiens, UniProt P25103); assay: NK1 radioligand binding assay ([125I]Substance P, U373 cell membranes); settings: 1 hour at room temperature
T2 construct: endogenous in cells; host or cells: U373 cells (crude membranes)
T2 sequence (P25103 whole entry): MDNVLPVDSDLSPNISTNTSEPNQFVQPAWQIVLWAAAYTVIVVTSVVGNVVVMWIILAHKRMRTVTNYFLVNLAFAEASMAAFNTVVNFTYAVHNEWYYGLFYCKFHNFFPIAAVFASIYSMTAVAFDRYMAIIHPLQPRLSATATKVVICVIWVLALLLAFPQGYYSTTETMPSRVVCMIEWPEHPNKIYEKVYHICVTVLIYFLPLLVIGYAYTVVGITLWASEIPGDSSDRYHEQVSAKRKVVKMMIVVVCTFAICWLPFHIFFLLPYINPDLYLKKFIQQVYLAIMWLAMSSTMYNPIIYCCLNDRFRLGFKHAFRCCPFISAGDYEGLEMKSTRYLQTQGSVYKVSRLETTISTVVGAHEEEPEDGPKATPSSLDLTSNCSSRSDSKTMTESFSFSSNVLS
Method: as §1
NK1 radioligand binding assay. Compounds are dissolved in 100% DMSO at a concentration 100× the desired highest assay concentration, serially diluted 1:3 in 100% DMSO, and 0.6 ul/well of each solution is dispensed to a Nunc polypropylene, round bottom, 384 well plate. 100% inhibition is defined with 0.6 ul/well of 1 mM L-733,060 (Sigma L-137) dissolved in DMSO. 30 ul/well of a 2×U373 membrane preparation (267 ug/ml in 100 mM Tris-Cl, pH 7.5, 6 mM MgCl2, 0.2% (v/v) Sigma mammalian protease inhibitor cocktail (Sigma P-8340), and 4 ug/ml chymostatin, Sigma C-7268) and 30 ul/well of a 2×radioligand solution (400 pM [^125I]Substance P (Perkin Elmer NEX-190) in 1% (w/v) BSA (Sigma A-2153), 0.1 mg/ml bacitracin, Sigma B-0125) are added to the well and the reaction incubated for 1 hour at room temperature. The contents of the assay plate are then transferred to a Millipore MultiscreenHTS GF/B filter plate which has been pretreated with 0.5% PEI for at least one hour. The plate is vacuum filtered and washed with 7 washes of 100 ul/well of 20 mM Tris-Cl, pH 7.5, 0.5% (w/v) BSA chilled to 4° C. The filtration and washing is completed in less than 90 s. The plates are air-dried overnight, 12 ul/well of MicroScint scintillation fluid added, and the plates counted in a Trilux.
as §2

T1 sequence (P31645 whole entry): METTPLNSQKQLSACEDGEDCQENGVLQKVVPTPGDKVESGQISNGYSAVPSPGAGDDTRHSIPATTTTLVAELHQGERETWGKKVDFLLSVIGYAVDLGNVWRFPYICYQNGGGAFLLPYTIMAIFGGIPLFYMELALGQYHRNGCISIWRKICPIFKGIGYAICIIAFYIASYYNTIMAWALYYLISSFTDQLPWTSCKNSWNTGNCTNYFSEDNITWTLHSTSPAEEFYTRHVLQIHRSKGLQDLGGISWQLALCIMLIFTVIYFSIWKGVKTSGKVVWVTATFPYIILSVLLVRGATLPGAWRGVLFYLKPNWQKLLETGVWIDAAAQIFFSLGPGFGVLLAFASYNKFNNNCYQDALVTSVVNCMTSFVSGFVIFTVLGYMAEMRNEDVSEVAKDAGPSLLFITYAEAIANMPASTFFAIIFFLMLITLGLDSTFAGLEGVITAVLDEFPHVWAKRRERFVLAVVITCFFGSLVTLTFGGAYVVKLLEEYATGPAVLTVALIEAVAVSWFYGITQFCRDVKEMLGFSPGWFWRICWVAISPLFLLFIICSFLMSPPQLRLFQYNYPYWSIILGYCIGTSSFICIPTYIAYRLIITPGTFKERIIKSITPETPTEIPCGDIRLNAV

SMILES	IC50 [1] [nM]	IC50 [2] [nM]
NCCC1(COCc2cc(Br)cc(C(F)(F)F)c2)OCc2ccccc21 (centres unmarked) [Example 1, 2-(1-((3-bromo-5-(trifluoromethyl)benzyloxy)methyl)-1,3-dihydroisobenzofuran-1-yl)ethanamine]	0.01 to 100	0.01 to 100
N#Cc1ccc(-c2cc(COCC3(CCN)OCc4ccccc43)cc(C(F)(F)F)c2)cc1 (centres unmarked) [Example 2, 3′-(((1-(2-aminoethyl)-1,3-dihydroisobenzofuran-1-yl)methoxy)methyl)-5′-(trifluoromethyl)biphenyl-4-carbonitrile]	100 to 300	0.01 to 100
NCCC1(COCc2cc(-c3ccncc3)cc(C(F)(F)F)c2)OCc2ccccc21 (centres unmarked) [Example 3]	100 to 300	0.01 to 100
N#Cc1cccc(-c2cc(COCC3(CCN)OCc4ccccc43)cc(C(F)(F)F)c2)c1 (centres unmarked) [Example 4]	100 to 300	100 to 300
NCCC1(COCc2cc(-c3ccccc3C(N)=O)cc(C(F)(F)F)c2)OCc2ccccc21 (centres unmarked) [Example 5]	> 300	> 300
N#Cc1ccccc1-c1cc(COCC2(CCN)OCc3ccccc32)cc(C(F)(F)F)c1 (centres unmarked) [Example 6]	100 to 300	100 to 300
COc1ccc(-c2cc(COCC3(CCN)OCc4ccccc43)cc(C(F)(F)F)c2)cc1 (centres unmarked) [Example 7]	> 300	0.01 to 100
NCCC1(COCc2cc(-c3ccc(Cl)cc3)cc(C(F)(F)F)c2)OCc2ccccc21 (centres unmarked) [Example 8]	100 to 300	0.01 to 100
NCCC1(COCc2cc(-c3ccc(F)cc3)cc(C(F)(F)F)c2)OCc2ccccc21 (centres unmarked) [Example 9]	100 to 300	0.01 to 100
NCCC1(COCc2cc(-c3cccc(F)c3)cc(C(F)(F)F)c2)OCc2ccccc21 (centres unmarked) [Example 10]	100 to 300	0.01 to 100
NCCC1(COCc2cc(-c3ccc(F)c(F)c3)cc(C(F)(F)F)c2)OCc2ccccc21 (centres unmarked) [Example 11]	100 to 300	0.01 to 100
COc1ccc(-c2cc(COCC3(CCN)OCc4ccccc43)cc(C(F)(F)F)c2)cc1F (centres unmarked) [Example 12]	> 300	0.01 to 100
NCCC1(COCc2cc(-c3cccc(Cl)c3)cc(C(F)(F)F)c2)OCc2ccccc21 (centres unmarked) [Example 13]	> 300	100 to 300
NCCC1(COCc2cc(-c3ccccc3Cl)cc(C(F)(F)F)c2)OCc2ccccc21 (centres unmarked) [Example 14]	> 300	100 to 300
NCCC1(COCc2cc(-c3ccc(F)cc3F)cc(C(F)(F)F)c2)OCc2ccccc21 (centres unmarked) [Example 15]	100 to 300	0.01 to 100
NCCC1(COCc2cc(N3CCOCC3)cc(C(F)(F)F)c2)OCc2ccccc21 (centres unmarked) [Example 16, 2-(1-((3-morpholino-5-(trifluoromethyl)benzyloxy)methyl)-1,3-dihydroisobenzofuran-1-yl)ethanamine]	> 300	0.01 to 100
CN(C)CCC1(COCc2cc(Br)cc(C(F)(F)F)c2)OCc2ccccc21 (centres unmarked) [Example 17, 2-(1-((3-bromo-5-(trifluoromethyl)benzyloxy)methyl)-1,3-dihydroisobenzofuran-1-yl)-N,N-dimethylethanamine]	0.01 to 100	0.01 to 100
CN(C)CCC1(COCc2cc(-c3ccc(C#N)cc3)cc(C(F)(F)F)c2)OCc2ccccc21 (centres unmarked) [Example 18]	100 to 300	0.01 to 100

More lines, now with the values ahead:

IC50 [1] [nM]	IC50 [2] [nM]	SMILES
0.01 to 100	0.01 to 100	CN(C)CCC1(COCc2cc(-c3ccncc3)cc(C(F)(F)F)c2)OCc2ccccc21 (centres unmarked) [Example 19]
0.01 to 100	0.01 to 100	CN(C)CCC1(COCc2cc(N3CCOCC3)cc(C(F)(F)F)c2)OCc2ccccc21 (centres unmarked) [Example 20, N,N-dimethyl-2-(1-((3-morpholino-5-(trifluoromethyl)benzyloxy)methyl)-1,3-dihydroisobenzofuran-1-yl)ethanamine]
> 300	0.01 to 100	CN(C)CCC1(COCc2cc(C(F)(F)F)cc(C(F)(F)F)c2)OCc2cc(C#N)ccc21 (centres unmarked) [Example 21]
> 300	0.01 to 100	CN(C)CCC1(COCc2cc(Br)cc(C(F)(F)F)c2)OCc2cc(C#N)ccc21 (centres unmarked) [Example 22]
100 to 300	0.01 to 100	N#Cc1ccc2c(c1)COC2(CCN)COCc1cc(C(F)(F)F)cc(C(F)(F)F)c1 (centres unmarked) [Example 23]
0.01 to 100	0.01 to 100	N#Cc1ccc2c(c1)COC2(CCN)COCc1cc(Br)cc(C(F)(F)F)c1 (centres unmarked) [Example 24]
> 300	0.01 to 100	CN(C)CCC1(COCc2cc(-c3ccc(C#N)cc3)cc(C(F)(F)F)c2)OCc2cc(C#N)ccc21 (centres unmarked) [Example 25]
> 300	100 to 300	CN(C)CCC1(COCc2cc(-c3ccncc3)cc(C(F)(F)F)c2)OCc2cc(C#N)ccc21 (centres unmarked) [Example 26]
100 to 300	0.01 to 100	CC(OCC1(CCN(C)C)OCc2ccccc21)c1cc(Br)cc(C(F)(F)F)c1 (centres unmarked) [Example 27]
> 300	0.01 to 100	CC(OCC1(CCN)OCc2ccccc21)c1cc(Br)cc(C(F)(F)F)c1 (centres unmarked) [Example 28]
> 300	0.01 to 100	CC(OCC1(CCN(C)C)OCc2ccccc21)c1cc(C(F)(F)F)cc(C(F)(F)F)c1 (centres unmarked) [Example 29]
> 300	0.01 to 100	CC(OCC1(CCN)OCc2ccccc21)c1cc(C(F)(F)F)cc(C(F)(F)F)c1 (centres unmarked) [Example 30]
0.01 to 100	100 to 300	CN(C)CCC1(COCc2cc(Cl)cc(Br)c2)OCc2ccccc21 (centres unmarked) [Example 31]
0.01 to 100	0.01 to 100	NCCC1(COCc2cc(Cl)cc(Br)c2)OCc2ccccc21 (centres unmarked) [Example 32]
0.01 to 100	0.01 to 100	CN(C)CCC1(COCc2cc(Cl)cc(-c3ccc(C#N)cc3)c2)OCc2ccccc21 (centres unmarked) [Example 33]
0.01 to 100	0.01 to 100	N#Cc1ccc(-c2cc(Cl)cc(COCC3(CCN)OCc4ccccc43)c2)cc1 (centres unmarked) [Example 34]
100 to 300	0.01 to 100	NCCC1(COCc2cc(C(F)(F)F)cc(C(F)(F)F)c2)OCc2ccccc21 (centres unmarked) [Example 35, 2-(1-((3,5-Bis(trifluoromethyl)benzyloxy)methyl)-1,3-dihydroisobenzofuran-1-yl)ethanamine]
0.01 to 100	0.01 to 100	CN(C)CCC1(COCc2cc(C(F)(F)F)cc(C(F)(F)F)c2)OCc2ccccc21 (centres unmarked) [Example 36, 2-(1-((3,5-Bis(trifluoromethyl)benzyloxy)methyl)-1,3-dihydroisobenzofuran-1-yl)-N,N-dimethylethanamine]
0.01 to 100	0.01 to 100	NCCCC1(COCc2cc(C(F)(F)F)cc(C(F)(F)F)c2)OCc2ccccc21 (centres unmarked) [Example 37, 3-(1-((3,5-Bis(trifluoromethyl)benzyloxy)methyl)-1,3-dihydroisobenzofuran-1-yl)propan-1-amine]

Reference: US7632861B2, “Substituted heterocyclic ethers and their use in CNS disorders” (Bristol-Myers Squibb Company, priority 2007, dated 2009)
